Entries after “also recorded” stand apart in the source; their conditions may differ.
Columns and labels:
[1] = test system: diarrheagenic E. coli and APEC; experiment: Growth of diarrheagenic and APEC E. coli in LB media; type: cell-based; conditions: 30 mM
Description: (§1) The control sample contained 40 mM NaCl.
Diarrheagenic E. coli pathogroups differ by their preferential host colonization sites, virulence mechanisms, and clinical symptoms.

[2] = test system: AIEC and cancer associated E. coli; experiment: Soft agar motility assay, E. coli; type: cell-based; conditions: 10 h, AIEC NC101, 541-1, cancer associated E. coli
Description: (§2) The ability of ABA C1-3 and BA to impact the motility of E. coli and Salmonella was evaluated using sloppy agar treated with and without BA and C1-C3 alkyl boronic acids. Motility is strongly linked to the virulence phenotype of these bacterial strains. E. coli was grown overnight at 37° C. in LB broth. Soft agar plates (1% tryptone, 0.5% NaCl, 0.25% agar) were prepared the day before the assay was carried out. Sterile NaCl (control), boric or boronic acid stock solution was added into the agar right before pouring the plates. The overnight cultures of E. coli were transferred (3 μl) on to the center of each plate, followed by incubation of the plates at 37° C. for 10 h. E. coli motility was quantified by measuring the diameter of the circular swarming area formed by the growing motile bacteria.

nF-κB = experiment: E. coli induced nF-κB activation in HEK-Blue KD-TLR5 cells (SEAP reporter); type: cell-based; conditions: m.o.i 20, SEAP at 24 h
Description: HEK-Blue KD-TLR5 cells were used to detect the promotor activation of nF-κB by E. coli infection with or without boric or boronic acid treatment. nF-κB is the prototypical transcription factor for pro-inflammatory cytokines in epithelium. Briefly, cells were seeded in 96-well plates at a density of 5×10^4 cells per well. E. coli was diluted into fresh cell medium containing either NaCl (Control), boric or boronic acid at an m.o.i of 200 as 10× inocula, followed by addition of this inoculum (10 μl) into each well containing 100 μl of medium for a final m.o.i of 20. At 3 h post infection, the cell medium was carefully removed from each well, and replaced with 100 μl of fresh medium containing gentamycin (200 μg mL^−1). At 24 h post infection, the spent medium was collected, and centrifuged at 12,000 r.p.m. for 5 min to remove any particulate matter. QUANTI-Blue Kit (InvivoGen, San Diego, CA, USA) was used to detect the reporter protein SEAP (secreted alkaline phosphatase) following the manufacturer's instructions.

[3] = test system: AIEC in murine macrophage J774A.1 cells; experiment: Uptake and survival of AIEC in J774A.1 macrophages; type: cell-based, E. coli; conditions: for survival of AIEC in J774A.1 macrophages: 30 mM during infection, 24 h post infection; for uptake of AIEC by J774A.1 macrophages: 30 mM, 1 h
[4] = test system: AIEC E. coli (541-1, LF82) virulence genes; experiment: Virulence gene expression of AIEC (qRT-PCR); type: cell-based; conditions: 30 mM
Description: Total RNA was extracted using the Qiagen RNAProtect-RNeasy Kit per manufacturer's protocol. Total RNA was treated with TURBO DNA-Free Kit (Ambion), followed by a two-step qRT-PCR analysis, using Qiagen's QuantiTect Reverse Transcription Kit and QuantiNova SYBR Green PCR Kit. Each qPCR reaction contained 1 μl of cDNA, 0.7 μl of each forward and reverse primers (10 μM), 5 μL of 2× SYBR Green Master Mix, 1 μl of QN ROX Reference Dye and […] of nuclease-free water to make the total volume of 10 μl. The reaction was run with ABI7000 (Applied Biosystems). […] The relative change of a targeted gene expression was calculated by using the equation RQ=2^−ΔΔCT.

[5] = 8-week toxicity study in mice, drinking water; type: in vivo, C57/B18 mice; conditions: mouse, in vivo
Description: The toxicity of boric and ethylboronic acids were examined with C57/B18 mice. At concentrations of 0, 10, 20, and 40 mM, the two chemicals were given to each group (6 mice) in drinking water. The body weight of each mouse was recorded weekly for 8 weeks, and fecal samples were also collected weekly for 16s sequencing. All animals were sacrificed at the end of 8th week. The length of whole intestine and ileum of each mouse was measured, and sections of the intestine (i. e. small intestine, ileum, cecum, and large intestine) were taken for histopathological and FISH analysis. Fecal samples were used for 16s and lipocalin analysis.
For lipocalin analysis, mouse fecal pellets were collected and frozen at −80 C during toxicity study. To determine lipocalin activity fecal pellets were diluted in microfuge tubes 1/30 with 0.1% Tween20/PBS and vortexed for 20 min at maximum speed. Undissolved particles were removed by centrifuging at 12,000 rpm for 10 min at 4 C. Supernatant was removed and placed into a clean microfuge tube. Lipocalin activity was determined using Mouse Lipocalin-2/NGAL DuoSet ELISA Kit (R&D Systems, DY1857) per manufacturer's instructions.

[6] = DSS induced colitis in mice; type: in vivo, C57BL mice; conditions: 40 mM in drinking water after DSS (3%)
Description: On the basis of favorable in vivo toxicity tests, the ability of BA and EBA to reduce the severity of inflammation in murine models of microbially driven IBD was tested. The effect of BA and EBA (40 mM) on intestinal inflammation was evaluated in mice with dextran sodium sulfate (“DSS”) induced colitis. The DSS model has a complex etiopathogenesis that involves host-immune and inflammatory responses and the enteric microbiome BA To test their protecting ability to the gastrointestinal tract, boric and ethylboronic acid were given to C57BL mice at 40 mM concentration respectively in drinking water after DSS (3%) treatment. Body weight and fecal samples were taken before and after 6-day treatment. At the 6th day, all mice were euthanized for gross necropsy and histopathology. Intestinal sections were collected and embedded for pathological and FISH analysis. Fecal samples were used for 16s and lipocalin analysis.

[7] = test system: Feline Infectious Peritonitis Virus (FIPV) Black (TN-406); experiment: FIPV replication and syncytium formation, immunofluorescence; type: cell-based, Feline Coronavirus type I; conditions: 10, 20, 30, 40 mM; Feline Lung cells, 18 h post-infection
AIEC E. coli = conditions: complex media lacking ethanolamine or fucose
FIPV = conditions: known drugs; cited from earlier work
[8] = molecular target: T1, 3CL protease of the FIP virus (Feline coronavirus, UniProt Q98VG9); conditions: cited from earlier work
T1 construct: 3CL protease of the FIP virus
T1 sequence (Q98VG9 2904-3205): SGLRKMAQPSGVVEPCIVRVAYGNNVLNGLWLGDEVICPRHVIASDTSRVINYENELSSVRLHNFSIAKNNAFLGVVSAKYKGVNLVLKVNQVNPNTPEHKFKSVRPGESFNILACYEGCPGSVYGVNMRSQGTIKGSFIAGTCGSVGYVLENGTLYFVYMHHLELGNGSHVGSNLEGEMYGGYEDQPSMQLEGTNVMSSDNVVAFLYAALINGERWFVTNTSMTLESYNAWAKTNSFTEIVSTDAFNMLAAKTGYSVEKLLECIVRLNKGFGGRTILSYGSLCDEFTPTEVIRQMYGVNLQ

Salmonella [9] = experiment: Growth of five Salmonella strains; type: cell-based
Description: as §1

[10] = test system: AIEC E. coli isolated from people (MDR and non-MDR strains); experiment: Growth of MDR and non-MDR E. coli associated with Crohn's disease; type: cell-based; conditions: 40 mM, LB broth, 48 hrs
Description: (§3) The ability of C1-C3 alkyl boronic acids and BA to impact the growth of MDR E. coli isolated from people and dogs was evaluated using a temperature controlled 96-well multiplate incubator at 37° C. over 48 hrs. Growth in media (LB broth) with and without ABA C2-6 (40 mM) was monitored by readings at OD600 with the AUC of the growth curve calculated.

[11] = test system: AIEC E. coli from dogs (MDR and non-MDR strains); experiment: Growth of MDR and non-MDR E. coli associated with Granulomatous colitis in dogs; type: cell-based; conditions: 40 mM, LB broth, 48 hrs
Description: as §3
Non-MDR strains KD1, KD2, and KD3 were also evaluated.

Salmonella [12] = experiment: Soft agar motility assay, Salmonella; type: cell-based; conditions: % motility of the control
Description: as §2

AIEC 541-1 and LF82 = experiment: Adhesion and invasion of Caco-2 cells by AIEC; type: cell-based, E. coli; conditions: 30 mM, m.o.i 10, 3 h
Description: E. coli was cultured overnight in LB at 37° C. with shaking. Bacterial pellets were re-suspended in PBS before dilution in cell culture media±30 mM boronic acid or alkyl boronic acid to an m.o.i (multiplicity of infection) of 10. Caco-2 cells were infected with the diluted E. coli for 3 h at 37° C. before washing with PBS, then lysed with 1% Triton X-100. Serial dilutions of the lysates were made in PBS and plated on LB agar. The total number of colonies recovered was used to calculate the number of adherent bacteria. For invasion assays, cells were treated with gentamicin (100 μg mL−1) for one hour after initial infection and 3× wash with PBS to kill extracellular bacteria. Cells were then washed 3× after gentamicin treatment, lysed and plated as described above.

[13] = test system: typhoid toxin B subunit (CdtB); type: cell-based, Salmonella typhi
[14] = test system: probiotic Lactobacillus spp; experiment: Growth of probiotic Lactobacillus strains; conditions: three Lactobacillus strains

Structure (SMILES): OB(O)O [BA, Boric acid, reference compound]
- inhibition of growth of diarrheagenic and APEC E. coli [1]: have activity versus the diarrheagenic E. coli and APEC that varies by pathogroup
- motility of E. coli [2]: had less impact
- induction of nF-κB by E. coli (nF-κB): reduced the induction of nF-κB by E. coli
- survival of AIEC in J774A.1 macrophages [3]: inhibited the survival
- uptake of AIEC by J774A.1 macrophages [3]: inhibited the uptake
- pduC expression in 541-1 [4]: Upregulation
- pduC expression in LF-82 [4]: Upregulation
- fecal 16S profiles [5]: not significantly different from control mice
- colon length in DSS colitis versus control mice [6]: significantly different
- fecal lipocalin levels in DSS colitis versus control mice [6]: significantly different
- intestinal bleeding in DSS colitis [6]: observed
- body weight in DSS colitis ([6]; 6-day treatment): reduced
- replication and syncytium formation of FIPV [7]: able to inhibit replication and syncytium formation
- suppression of AIEC growth in complex media (AIEC E. coli): effective in suppressing AIEC growth

Structure (SMILES): CC(C)C[C@H](NC(=O)OCc1ccccc1)C(=O)N[C@@H](C[C@@H]1CCNC1=O)C(O)S(=O)(=O)[O-].[Na+] (stereo partly shown) [GC376]
- efficacy against FIPV (FIPV): some efficacy against FIPV
- inhibition of FIP virus 3CL protease [8]: inhibited

Structure (SMILES): CCCB(O)O [PBA]
- inhibition of growth of diarrheagenic and APEC E. coli [1]: have activity versus the diarrheagenic E. coli and APEC that varies by pathogroup; also recorded: more effective in inhibiting bacterial growth than BA overall
- inhibition of growth of Salmonella serovars (Salmonella [9]): inhibit the growth of multiple serovars of Salmonella more effectively than BA
- growth inhibition of Crohn's disease associated AIEC, MDR and non-MDR [10]: more effective than BA over a wider range of AIEC, including MDR and non-MDR strains
- growth inhibition of canine Granulomatous colitis associated AIEC, MDR and non-MDR [11]: more effective than BA over a wider range of AIEC, including MDR and non-MDR strains
- motility of E. coli [2]: highly effective at blocking motility of AIEC and cancer associated E. coli
- motility of Salmonella (Salmonella [12]): highly effective at blocking motility of Salmonella
- induction of nF-κB by E. coli (nF-κB): reduced the induction of nF-κB by E. coli
- adhesion and invasion of Caco-2 by AIEC (AIEC 541-1 and LF82): suppress adhesion and invasion of Caco-2 by AIEC 541-1 and LF82
- survival of AIEC in J774A.1 macrophages [3]: inhibited the survival
- uptake of AIEC by J774A.1 macrophages [3]: inhibited the uptake
- typhoid toxin (CdtB) production [13]: inhibition of toxin production (CdtB)
- replication and syncytium formation of FIPV [7]: inhibited replication and syncytium formation of FIPV in infected cells
- degree of cytopathic effect (Caco-2 cells): EBA<BA<PBA
- cytotoxicity in antiviral assay (Feline Lung cells): Cytotoxicity was not observed at antiviral doses
- growth of probiotic Lactobacillus spp [14]: do not suppress growth

Source: US12589103B2, “Antimicrobial and antiviral effects of C2-C7 alkyl boronic acids” (CORNELL UNIVERSITY, priority 2019, dated 2026)
